Reference: patent US7998940B2, “Aptamers to von Willebrand factor and their use as thrombotic disease therapeutics” (Archemix Corp., priority 2004, dated 2011)
Oligonucleotides are written 5' to 3', each unit as a sugar letter and its base; * is a phosphorothioate linkage, no mark a phosphodiester; rarer units and linkages stand in square brackets, end groups in braces. Plain capitals give the bases only. [invdT] = inverted (3'-3') thymidine; d = 2'-deoxy (DNA); m = 2'-O-methyl

Tested on: full length human vWF (SEQ ID NO 7)
Assay: dot blot KD determination and extent of binding, full length human vWF;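 also: dot blot binding of aptamers to full length human vWF across a protein titration, incubated 30 minutes at room temperature in 1x DPBS with BSA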
Conditions: Phase 1 modification; for % binding @ 100 nM vWF: extent of aptamer binding at 100 nM full length human vWF; for Kd: full length human vWF, dot blot, 8 point protein titration, read-out: KD

Substance	% binding @ 100 nM vWF [%]	Kd [nM]
ARC1216: ARC1172 with one residue replaced by 2'-O methyl residue (DNA dGdGdCdGdTdGdCdAdGdTdGdCdCdTdTdCdGdGdCdCdGdTmGdCdGdGdTdGdCdCdTdCdCdGdTdCdAdCdGdCdC[invdT]; aptamer)	40	0.6
ARC1217: ARC1172 with one residue replaced by 2'-O methyl residue (DNA dGdGdCdGdTdGdCdAdGdTdGdCdCdTdTdCdGdGdCdCdGdTdGmCdGdGdTdGdCdCdTdCdCdGdTdCdAdCdGdCdC[invdT]; aptamer)	18	14
ARC1218: ARC1172 with one residue replaced by 2'-O methyl residue (DNA dGdGdCdGdTdGdCdAdGdTdGdCdCdTdTdCdGdGdCdCdGdTdGdCmGdGdTdGdCdCdTdCdCdGdTdCdAdCdGdCdC[invdT]; aptamer)	2	32
ARC1219: ARC1172 with one residue replaced by 2'-O methyl residue (DNA dGdGdCdGdTdGdCdAdGdTdGdCdCdTdTdCdGdGdCdCdGdTdGdCdGmGdTdGdCdCdTdCdCdGdTdCdAdCdGdCdC[invdT]; aptamer)	33	3
ARC1220: ARC1172 with one residue replaced by 2'-O methyl residue (dGdGdCdGdTdGdCdAdGdTdGdCdCdTdTdCdGdGdCdCdGdTdGdCdGdGmUdGdCdCdTdCdCdGdTdCdAdCdGdCdC[invdT]; aptamer)	17	11
ARC1221: ARC1172 with one residue replaced by 2'-O methyl residue (dGdGdCdGdTdGdCdAdGdTdGdCdCdTdTdCdGdGdCdCdGdTdGdCdGdGdTmGdCdCdTdCdCdGdTdCdAdCdGdCdC[invdT]; aptamer)	43	1
ARC1222: ARC1172 with one residue replaced by 2'-O methyl residue (dGdGdCdGdTdGdCdAdGdTdGdCdCdTdTdCdGdGdCdCdGdTdGdCdGdGdTdGmCdCdTdCdCdGdTdCdAdCdGdCdC[invdT]; aptamer)	40	0.9
ARC1223: ARC1172 with one residue replaced by 2'-O methyl residue (dGdGdCdGdTdGdCdAdGdTdGdCdCdTdTdCdGdGdCdCdGdTdGdCdGdGdTdGdCmCdTdCdCdGdTdCdAdCdGdCdC[invdT]; aptamer)	26	36
ARC1224: ARC1172 with one residue replaced by 2'-O methyl residue (dGdGdCdGdTdGdCdAdGdTdGdCdCdTdTdCdGdGdCdCdGdTdGdCdGdGdTdGdCdCmUdCdCdGdTdCdAdCdGdCdC[invdT]; aptamer)	47	0.5
ARC1225: ARC1172 with one residue replaced by 2'-O methyl residue (dGdGdCdGdTdGdCdAdGdTdGdCdCdTdTdCdGdGdCdCdGdTdGdCdGdGdTdGdCdCdTmCdCdGdTdCdAdCdGdCdC[invdT]; aptamer)	16	11
ARC1226: ARC1172 with one residue replaced by 2'-O methyl residue (dGdGdCdGdTdGdCdAdGdTdGdCdCdTdTdCdGdGdCdCdGdTdGdCdGdGdTdGdCdCdTdCmCdGdTdCdAdCdGdCdC[invdT]; aptamer)	25	12
ARC1227: ARC1172 with one residue replaced by 2'-O methyl residue (dGdGdCdGdTdGdCdAdGdTdGdCdCdTdTdCdGdGdCdCdGdTdGdCdGdGdTdGdCdCdTdCdCmGdTdCdAdCdGdCdC[invdT]; aptamer)	40	3
ARC1228: ARC1172 with one residue replaced by 2'-O methyl residue (dGdGdCdGdTdGdCdAdGdTdGdCdCdTdTdCdGdGdCdCdGdTdGdCdGdGdTdGdCdCdTdCdCdGmUdCdAdCdGdCdC[invdT]; aptamer)	43	2
